According to US20120077828A1, “CHEMICAL COMPOUNDS” (priority 2010, published 2012):

Target: T1, PERK (Homo sapiens, UniProt Q9NZJ5)
T1 construct: GST-PERK (536-1116) cytoplasmic domain was purchased from Invitrogen; purchased Invitrogen PV5106
T1 sequence (Q9NZJ5 536-1116): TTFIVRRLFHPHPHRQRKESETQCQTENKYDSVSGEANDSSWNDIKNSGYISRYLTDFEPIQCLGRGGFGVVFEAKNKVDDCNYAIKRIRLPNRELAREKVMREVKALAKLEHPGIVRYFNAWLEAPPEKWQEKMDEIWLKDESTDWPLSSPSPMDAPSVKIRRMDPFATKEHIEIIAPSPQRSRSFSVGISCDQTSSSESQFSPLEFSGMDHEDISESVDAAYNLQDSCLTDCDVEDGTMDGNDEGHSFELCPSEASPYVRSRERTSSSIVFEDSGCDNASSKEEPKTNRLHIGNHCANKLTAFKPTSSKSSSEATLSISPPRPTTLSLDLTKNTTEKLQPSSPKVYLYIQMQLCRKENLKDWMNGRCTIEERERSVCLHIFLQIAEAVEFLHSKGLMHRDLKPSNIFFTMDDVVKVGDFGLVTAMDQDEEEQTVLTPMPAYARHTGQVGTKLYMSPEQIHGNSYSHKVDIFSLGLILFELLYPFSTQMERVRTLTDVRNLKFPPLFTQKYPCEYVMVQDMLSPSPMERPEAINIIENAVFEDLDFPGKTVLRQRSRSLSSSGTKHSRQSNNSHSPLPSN
Assay: PKR-like Endoplasmic Reticulum Kinase (PERK) Assay (HTRF Format)
Format: biochemical
Details: average, in at least one set of experimental runs; read-out: average pIC50 value against PERK (converted)
Experimental: PKR-like Endoplasmic Reticulum Kinase (PERK) Assay (HTRF Format)
Source of substrate: elF2α: 6-His-Full-length human elF2α is purified from baculovirus expression in Sf9 insect cells. The elF2 protein is buffer exchanged by dialysis into PBS, chemically modified by NHS-LC-Biotin and then buffer exchanged by dialysis into 50 mm TRIS pH 7.2/250 mM NaCl/5 mM DTT. Protein is aliquoted and stored at −80° C.
Assays were performed by adding GST-PERK solution to assay plates containing compounds and pre-incubated for 30 minutes at room temperature. The reaction is initiated by the addition of ATP and EIF2α substrate solution. Quench solution is added following a one hour incubation at room temperature. The plates are covered for 2 hours at room temperature prior to determination of signal. The resulting signal is quantified on a Viewlux Reader (PerkinElmer). The APC Signal is normalized to the Europium signal by transforming the data through an APC/Eu calculation.
Compounds under analysis were dissolved in DMSO to 1.0 mM and serially diluted 1 to 3 with DMSO through eleven dilutions. 0.1 μl of each concentration was transferred to the corresponding well of an assay plate. This creates a final compound concentration range from 0.00017 to 10 μM.
The data for concentration response curves were plotted as % Inhibition calculated with the data reduction formula 100*(1−(U1−C2)/(C1−C2)) versus concentration of compound where U is the unknown value, C1 is the average control value obtained for 1% DMSO, and C2 is the average control value obtained for 0.1 M EDTA. Data were fitted with a curve described by:
where A is the minimum y, B is the maximum y concentration [M], D is the slope factor, and x is the log10 of the compound.
In the above data, pIC50 is defined as −log(IC50) where the IC50 value is expressed in molar units.

| IC50 [nM] | Structure (SMILES) |
| --- | --- |
| ≤ 1 | Cc1cccc(CC(=O)N2CCc3cc(-c4cn(C5CNC5)c5ncnc(N)c45)ccc32)c1 [Example 92, 7-(3-azetidinyl)-5-{1-[(3-methylphenyl)acetyl]-2,3-dihydro-1H-indol-5-yl}-7H-pyrrolo[2,3-d]pyrimidin-4-amine] |
| ≤ 0.316 | Cn1cc(-c2ccc3c(c2)CCN3C(=O)Cc2cc(Cl)ccc2F)c2c(N)ncnc21 [Example 100, 5-{1-[(5-chloro-2-fluorophenyl)acetyl]-2,3-dihydro-1H-indol-5-yl}-7-methyl-7H-pyrrolo[2,3-d]pyrimidin-4-amine] |
| ≤ 0.316 | Cn1cc(-c2ccc3c(c2F)CCN3C(=O)Cc2ccccc2)c2c(N)ncnc21 [Example 112, 5-[4-fluoro-1-(phenylacetyl)-2,3-dihydro-1H-indol-5-yl]-7-methyl-7H-pyrrolo[2,3-d]pyrimidin-4-amine] |
| ≤ 0.316 | Nc1ncnc2c1c(-c1ccc3c(c1)CCN3C(=O)Cc1cccc(C(F)(F)F)c1)cn2CCN1CCOCC1 [Example 127, 7-[2-(4-morpholinyl)ethyl]-5-(1-{[3-(trifluoromethyl)phenyl]acetyl}-2,3-dihydro-1H-indol-5-yl)-7H-pyrrolo[2,3-d]pyrimidin-4-amine] |
| ≤ 2.51 | COc1cccc(CC(=O)N2CCc3cc(-c4csc5ccnc(N)c45)ccc32)c1 [Example 23, 3-(1-{[3-(methyloxy)phenyl]acetyl}-2,3-dihydro-1H-indol-5-yl)thieno[3,2-c]pyridin-4-amine] |
| ≤ 2.51 | Cn1nc(-c2ccc3c(c2)CCN3C(=O)Cc2cc(F)cc(F)c2F)c2c(N)ncnc21 [Example 55, 1-methyl-3-{1-[(2,3,5-trifluorophenyl)acetyl]-2,3-dihydro-1H-indol-5-yl}-1H-pyrazolo[3,4-d]pyrimidin-4-amine] |
| ≤ 1 | Cn1nc(N)c2c(-c3ccc4c(c3)CCN4C(=O)Cc3cccc(C(F)(F)F)c3)cncc21 [Example 143, 1-methyl-4-(1-{[3-(trifluoromethyl)phenyl]acetyl}-2,3-dihydro-1H-indol-5-yl)-1H-pyrazolo[3,4-c]pyridin-3-amine] |
| ≤ 1 | Cc1cccc(CC(=O)N2CCc3cc(-c4nn(C)c5ncnc(N)c45)ccc32)c1 [Example 18, 1-methyl-3-(1[(3-methylphenyl)acetyl]-2,3-dihydro-1H-indol-5-yl)-1H-pyrazolo[3,4-d]pyrimidin-4-amine] |
| ≤ 1 | Nc1ncc(Cl)c2occ(-c3ccc4c(c3)CCN4C(=O)Cc3cc(F)ccc3F)c12 [Example 131, 7-chloro-3-{1-[(2,5-difluorophenyl)acetyl]-2,3-dihydro-1H-indol-5-yl}furo[3,2-c]pyridin-4-amine] |
| ≤ 2.51 | Nc1nccc2scc(-c3ccc4c(c3)CCN4C(=O)Cc3cccc(Cl)c3)c12 [Example 22, 3-{1-[(3-chlorophenyl)acetyl]-2,3-dihydro-1H-indol-5-yl}thieno[3,2-c]pyridin-4-amine] |

| Structure (SMILES) | IC50 [nM] |
| --- | --- |
| Cn1cc(-c2ccc3c(c2)CCN3C(=O)Cc2cccc(C(F)(F)F)n2)c2c(N)ncnc21 [Example 125, 7-methyl-5-(1-{[6-(trifluoromethyl)-2-pyridinyl]acetyl}-2,3-dihydro-1H-indol-5-yl)-7H-pyrrolo[2,3-d]pyrimidin-4-amine] | ≤ 1 |
| Cn1cc(-c2ccc3c(c2)CCN3C(=O)Cc2ccc(F)cc2)c2c(N)ncnc21 [Example 93, 5-{1-[(4-fluorophenyl)acetyl]-2,3-dihydro-1H-indol-5-yl}-7-methyl-7H-pyrrolo[2,3-d]pyrimidin-4-amine] | ≤ 2.51 |
| Cn1cc(-c2ccc3c(c2)CCN3C(=O)Cc2cc(F)ccc2F)c2c(N)ncnc21 [Example 59, 5-{1-[(2,5-difluorophenyl)acetyl]-2,3-dihydro-1H-indol-5-yl}-7-methyl-7H-pyrrolo[2,3-d]pyrimidin-4-amine] | ≤ 1 |
